US10493077B2, “Fused imidazo-piperidine JAK inhibitor compound” (THERAVANCE BIOPHARMA R&D IP, LLC, priority 2017, dated 2019)

Assays:
CSF1R = target: T1, CSF1R (Homo sapiens, UniProt P07333); assay: Kinome screen, CSF1R; format: binding; conditions: screened at 1 μM
T1 construct: made in house; host or cells: T7 phage in E. coli (BL21-derived) or HEK-293
Protocol: (§1) Kinase-tagged T7 phage strains were grown in parallel in 24-well blocks in an E. coli host derived from the BL21 strain. E. coli were grown to log-phase and infected with T7 phage from a frozen stock (multiplicity of infection=0.4) and incubated with shaking at 32° C. until lysis (90-150 minutes). The lysates were centrifuged (6,000×g) and filtered (0.2 μm) to remove cell debris. The remaining kinases were produced in HEK-293 cells and subsequently tagged with DNA for qPCR detection.
(§2) Streptavidin-coated magnetic beads were treated with biotinylated small molecule ligands for 30 minutes at room temperature to generate affinity resins for kinase assays. The liganded beads were blocked with excess biotin and washed with blocking buffer (SeaBlock (Pierce), 1% BSA, 0.05% Tween 20, 1 mM DTT) to remove unbound ligand and to reduce non-specific phage binding. […] Test compounds were prepared as 40× stocks in 100% DMSO and directly diluted into the assay. All reactions were performed in polypropylene 384-well plates in a final volume of 0.04 ml. […] The beads were then re-suspended in elution buffer (1×PBS, 0.05% Tween 20, 0.5 μM non-biotinylated affinity ligand) and incubated at room temperature with shaking for 30 minutes. The kinase concentration in the eluates was measured by qPCR.

[1] = tested on: IL-2/anti-CD3 stimulated IFNγ in human PBMCs; assay: Cellular JAK potency assay: inhibition of IL-2/anti-CD3 stimulated IFNγ in human PBMCs; format: cell-based; conditions: PBMC, 24 h stimulation, read-out: pIC50, inhibition of IL-2/anti-CD3 stimulated IFNγ (converted)
Protocol: The potency of the test compound for inhibition of interleukin-2 (IL-2)/anti-CD3 stimulated interferon gamma (IFNγ) was measured in human peripheral blood mononuclear cells (PBMCs) isolated from human whole blood (Stanford Blood Center). Because IL-2 signals through JAK, this assay provides a measure of JAK cellular potency.
(1) Human peripheral blood mononuclear cells (PBMC) were isolated from human whole blood of healthy donors using a ficoll gradient. Cells were cultured in a 37° C., 5% CO2 humidified incubator in RPMI (Life Technologies) supplemented with 10% Heat Inactivated Fetal Bovine Serum (FBS, Life Technologies), 2 mM Glutamax (Life Technologies), 25 mM HEPES (Life Technologies) and 1× Pen/Strep (Life Technologies). Cells were seeded at 200,000 cells/well in media (50 μL) and cultured for 1 h. The compound was serially diluted in DMSO and then diluted another 500-fold (to a 2× final assay concentration) in media. […]
(2) After cytokine stimulation, cells were centrifuged at 500 g for 5 min and supernatants removed and frozen at −80° C. To determine the inhibitory potency of test compounds in response to IL-2/anti-CD3, supernatant IFNγ concentrations were measured via ELISA (R&D Systems). IC50 values were determined from analysis of the inhibition curves of concentration of IFNγ vs compound concentration. Data are expressed as pIC50 (negative decadic logarithm IC50) values.

CDK9 = target: T2, CDK9 (Homo sapiens, UniProt P50750); assay: Kinome screen, CDK9; format: binding; conditions: screened at 1 μM
T2 construct: made in house; host or cells: T7 phage in E. coli (BL21-derived) or HEK-293
T2 sequence (P50750 whole entry): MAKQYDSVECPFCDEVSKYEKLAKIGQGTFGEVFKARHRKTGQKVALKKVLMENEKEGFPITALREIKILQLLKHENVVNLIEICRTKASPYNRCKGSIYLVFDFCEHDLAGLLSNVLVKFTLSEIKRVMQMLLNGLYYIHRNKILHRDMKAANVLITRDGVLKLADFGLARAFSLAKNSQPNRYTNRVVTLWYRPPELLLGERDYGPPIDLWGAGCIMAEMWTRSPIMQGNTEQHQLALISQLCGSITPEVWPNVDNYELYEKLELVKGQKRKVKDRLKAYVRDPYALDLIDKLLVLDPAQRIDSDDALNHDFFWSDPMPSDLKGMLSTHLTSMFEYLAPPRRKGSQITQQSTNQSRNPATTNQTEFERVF
Protocol: as §1, §2

SRC = target: T3, SRC (Homo sapiens, UniProt P12931); assay: Kinome screen, SRC; format: binding; conditions: screened at 1 μM
T3 construct: made in house; host or cells: T7 phage in E. coli (BL21-derived) or HEK-293
T3 sequence (P12931 whole entry): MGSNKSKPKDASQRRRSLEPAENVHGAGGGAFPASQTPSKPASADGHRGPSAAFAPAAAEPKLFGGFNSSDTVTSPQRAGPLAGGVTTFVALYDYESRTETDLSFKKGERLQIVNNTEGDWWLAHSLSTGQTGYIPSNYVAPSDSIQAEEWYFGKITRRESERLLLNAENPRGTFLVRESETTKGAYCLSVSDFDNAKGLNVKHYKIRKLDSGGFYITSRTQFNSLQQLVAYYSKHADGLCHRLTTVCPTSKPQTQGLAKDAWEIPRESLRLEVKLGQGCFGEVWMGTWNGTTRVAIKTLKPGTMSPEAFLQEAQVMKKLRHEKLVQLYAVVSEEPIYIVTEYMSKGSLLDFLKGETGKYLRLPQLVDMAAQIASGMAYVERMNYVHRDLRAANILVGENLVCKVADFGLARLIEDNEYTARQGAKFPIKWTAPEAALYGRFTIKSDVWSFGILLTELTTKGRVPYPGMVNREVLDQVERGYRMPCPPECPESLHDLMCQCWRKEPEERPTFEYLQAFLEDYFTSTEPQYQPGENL
Protocol: as §1, §2

[2] = Dermal pharmacokinetics in mini-pig skin; format: in vivo; conditions: model cream and ointment formulations, without detectable plasma exposure
From the text: The objective of this assay was to determine the epidermal, dermal and plasma pharmacokinetics of a test compound following a 24 hr exposure to intact mouse or mini-pig skin.
Twenty-four hours prior to dosing the hair was shaved from the back of 25 g male Balb/c mice exposing an area at of least 6 cm^2 (about 10% of body surface) and, in a separate experiment, of 10 kg Gottingen mini-pigs exposing an area of at least 450 cm^2 (about 10% of body surface). At time zero, following isoflurane anesthesia, the test compound was applied to the back of mice or mini-pigs at a dose of 25 μL/cm^2. The skin was covered with an adhesive cover to prevent loss of compound to the cage or bedding.
Following 24 h exposure, the backs were gently washed with soap and water to remove non-absorbed drug and patted dry. Immediately following this washing, blood was drawn by cardiac puncture from the mice and via venipuncture from the mini-pigs. The outer skin (stratum corneum) was then removed by adhesive tape stripping. Upon exposure of the epidermis a 0.5 cm punch biopsy was taken. The epidermis and dermis were quickly separated, weighed and snap frozen. […]
Epidermis and dermis samples were homogenized in 1:10 (w/v) water using a Covaris ultrasonic homogenizer. Samples were extracted in 3 volumes of acetonitrile and quantified against a standard curve via LC-MS analysis.

JAK2 = target: T4, JAK2 (Homo sapiens, UniProt O60674); assay: LanthaScreen JAK biochemical assay, JAK2; conditions: read-out: JAK 2 pKi (converted)
T4 construct: GST; purchased Life Technologies
T4 sequence (O60674 whole entry): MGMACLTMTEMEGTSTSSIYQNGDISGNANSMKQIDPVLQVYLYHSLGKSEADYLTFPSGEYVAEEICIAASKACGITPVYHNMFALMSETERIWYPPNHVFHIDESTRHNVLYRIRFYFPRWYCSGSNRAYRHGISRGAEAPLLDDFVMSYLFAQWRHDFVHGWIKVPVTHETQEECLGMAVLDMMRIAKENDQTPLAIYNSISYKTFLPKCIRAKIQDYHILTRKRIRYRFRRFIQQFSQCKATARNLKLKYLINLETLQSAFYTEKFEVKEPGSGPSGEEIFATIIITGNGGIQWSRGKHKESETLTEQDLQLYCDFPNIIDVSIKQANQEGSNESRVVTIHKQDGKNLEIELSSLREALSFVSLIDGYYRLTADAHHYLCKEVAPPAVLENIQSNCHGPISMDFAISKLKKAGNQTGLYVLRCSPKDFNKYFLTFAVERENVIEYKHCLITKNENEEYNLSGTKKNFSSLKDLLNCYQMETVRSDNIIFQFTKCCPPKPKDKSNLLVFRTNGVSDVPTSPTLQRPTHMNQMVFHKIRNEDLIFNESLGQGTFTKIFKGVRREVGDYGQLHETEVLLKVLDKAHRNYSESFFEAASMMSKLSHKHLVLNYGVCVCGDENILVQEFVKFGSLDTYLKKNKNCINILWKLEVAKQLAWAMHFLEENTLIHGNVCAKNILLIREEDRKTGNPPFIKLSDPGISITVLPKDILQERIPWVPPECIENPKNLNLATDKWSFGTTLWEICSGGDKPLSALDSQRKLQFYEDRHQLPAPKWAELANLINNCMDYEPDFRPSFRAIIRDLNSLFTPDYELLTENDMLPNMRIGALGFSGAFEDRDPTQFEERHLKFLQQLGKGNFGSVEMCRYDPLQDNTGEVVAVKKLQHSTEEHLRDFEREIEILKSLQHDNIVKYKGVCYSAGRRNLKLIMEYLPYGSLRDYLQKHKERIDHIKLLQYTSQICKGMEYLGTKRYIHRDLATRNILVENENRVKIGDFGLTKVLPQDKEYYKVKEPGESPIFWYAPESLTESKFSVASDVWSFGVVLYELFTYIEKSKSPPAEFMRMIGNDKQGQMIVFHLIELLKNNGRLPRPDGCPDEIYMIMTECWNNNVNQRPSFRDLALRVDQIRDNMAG
Protocol: A panel of four LanthaScreen JAK biochemical assays (JAK1, 2, 3 and Tyk2) were carried in a common kinase reaction buffer (50 mM HEPES, pH 7.5, 0.01% Brij-35, 10 mM MgCl2, and 1 mM EGTA). Recombinant GST-tagged JAK enzymes and a GFP-tagged STAT1 peptide substrate were obtained from Life Technologies.
Serially diluted compound was pre-incubated with each of the four JAK enzymes and the substrate in white 384-well microplates (Corning) at ambient temperature for 1 h. ATP was subsequently added to initiate the kinase reactions in 10 μL total volume, with 1% DMSO. […] The plates were allowed to incubate at ambient temperature for 1 h before being read on the EnVision reader (Perkin Elmer). Emission ratio signals (520 nm/495 nm) were recorded and utilized to calculate the percent inhibition values based on DMSO and background controls.
For dose-response analysis, percent inhibition data were plotted vs. compound concentrations, and IC50 values were determined from a 4-parameter robust fit model with the Prism software (GraphPad Software). Results were expressed as pIC50 (negative logarithm of IC50) and subsequently converted to pKi (negative logarithm of dissociation constant, Ki) using the Cheng-Prusoff equation.

EPHB6 = target: T5, EPHB6 (Homo sapiens, UniProt O15197); assay: Kinome screen, EPHB6; format: binding; conditions: screened at 1 μM
T5 construct: made in house; host or cells: T7 phage in E. coli (BL21-derived) or HEK-293
T5 sequence (O15197 32-1021): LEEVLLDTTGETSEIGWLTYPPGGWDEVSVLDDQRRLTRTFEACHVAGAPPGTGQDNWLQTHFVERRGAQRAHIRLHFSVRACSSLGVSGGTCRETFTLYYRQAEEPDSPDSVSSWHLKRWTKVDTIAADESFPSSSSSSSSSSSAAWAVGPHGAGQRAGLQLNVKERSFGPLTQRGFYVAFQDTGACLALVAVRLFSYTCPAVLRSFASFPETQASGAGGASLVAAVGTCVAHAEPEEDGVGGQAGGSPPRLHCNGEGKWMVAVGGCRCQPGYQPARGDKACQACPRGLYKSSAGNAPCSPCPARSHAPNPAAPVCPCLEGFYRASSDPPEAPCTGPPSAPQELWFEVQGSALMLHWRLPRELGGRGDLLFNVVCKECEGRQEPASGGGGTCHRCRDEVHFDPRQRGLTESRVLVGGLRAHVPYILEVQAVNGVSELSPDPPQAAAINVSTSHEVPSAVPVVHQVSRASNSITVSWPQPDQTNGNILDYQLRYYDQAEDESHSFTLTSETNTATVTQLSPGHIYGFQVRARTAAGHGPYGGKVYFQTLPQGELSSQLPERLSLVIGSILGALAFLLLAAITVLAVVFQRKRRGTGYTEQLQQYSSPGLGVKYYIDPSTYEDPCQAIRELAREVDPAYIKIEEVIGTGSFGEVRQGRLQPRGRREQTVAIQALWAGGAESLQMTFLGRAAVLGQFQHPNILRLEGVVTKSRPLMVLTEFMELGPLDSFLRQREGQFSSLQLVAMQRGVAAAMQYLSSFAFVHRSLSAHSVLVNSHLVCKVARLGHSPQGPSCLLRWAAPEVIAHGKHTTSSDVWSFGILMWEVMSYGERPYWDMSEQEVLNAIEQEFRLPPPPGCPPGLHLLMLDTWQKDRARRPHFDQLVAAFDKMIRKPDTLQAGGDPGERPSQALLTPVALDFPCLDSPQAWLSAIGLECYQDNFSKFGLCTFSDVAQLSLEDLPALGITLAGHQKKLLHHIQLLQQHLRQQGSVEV
Protocol: as §1, §2

CDK2 = target: T6, CDK2 (Homo sapiens, UniProt P24941); assay: Kinome screen, CDK2; format: binding; conditions: screened at 1 μM
T6 construct: made in house; host or cells: T7 phage in E. coli (BL21-derived) or HEK-293
Protocol: as §1, §2

GSK3B = target: T7, GSK3B (Homo sapiens, UniProt P49841); assay: Kinome screen, GSK3B; format: binding; conditions: screened at 1 μM
T7 construct: made in house; host or cells: T7 phage in E. coli (BL21-derived) or HEK-293
T7 sequence (P49841 whole entry): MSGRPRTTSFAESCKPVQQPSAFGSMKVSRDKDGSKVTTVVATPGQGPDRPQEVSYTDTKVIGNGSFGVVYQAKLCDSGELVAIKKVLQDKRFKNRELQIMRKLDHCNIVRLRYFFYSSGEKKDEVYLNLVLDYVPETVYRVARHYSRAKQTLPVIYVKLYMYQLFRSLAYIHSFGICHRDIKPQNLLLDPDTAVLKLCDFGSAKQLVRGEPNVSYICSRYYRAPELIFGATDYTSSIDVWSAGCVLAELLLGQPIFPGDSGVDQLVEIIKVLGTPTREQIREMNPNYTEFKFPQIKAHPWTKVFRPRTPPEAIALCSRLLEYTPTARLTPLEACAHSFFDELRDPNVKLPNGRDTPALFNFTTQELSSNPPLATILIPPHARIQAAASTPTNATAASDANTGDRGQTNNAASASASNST
Protocol: as §1, §2

T1 sequence (P07333 20-972): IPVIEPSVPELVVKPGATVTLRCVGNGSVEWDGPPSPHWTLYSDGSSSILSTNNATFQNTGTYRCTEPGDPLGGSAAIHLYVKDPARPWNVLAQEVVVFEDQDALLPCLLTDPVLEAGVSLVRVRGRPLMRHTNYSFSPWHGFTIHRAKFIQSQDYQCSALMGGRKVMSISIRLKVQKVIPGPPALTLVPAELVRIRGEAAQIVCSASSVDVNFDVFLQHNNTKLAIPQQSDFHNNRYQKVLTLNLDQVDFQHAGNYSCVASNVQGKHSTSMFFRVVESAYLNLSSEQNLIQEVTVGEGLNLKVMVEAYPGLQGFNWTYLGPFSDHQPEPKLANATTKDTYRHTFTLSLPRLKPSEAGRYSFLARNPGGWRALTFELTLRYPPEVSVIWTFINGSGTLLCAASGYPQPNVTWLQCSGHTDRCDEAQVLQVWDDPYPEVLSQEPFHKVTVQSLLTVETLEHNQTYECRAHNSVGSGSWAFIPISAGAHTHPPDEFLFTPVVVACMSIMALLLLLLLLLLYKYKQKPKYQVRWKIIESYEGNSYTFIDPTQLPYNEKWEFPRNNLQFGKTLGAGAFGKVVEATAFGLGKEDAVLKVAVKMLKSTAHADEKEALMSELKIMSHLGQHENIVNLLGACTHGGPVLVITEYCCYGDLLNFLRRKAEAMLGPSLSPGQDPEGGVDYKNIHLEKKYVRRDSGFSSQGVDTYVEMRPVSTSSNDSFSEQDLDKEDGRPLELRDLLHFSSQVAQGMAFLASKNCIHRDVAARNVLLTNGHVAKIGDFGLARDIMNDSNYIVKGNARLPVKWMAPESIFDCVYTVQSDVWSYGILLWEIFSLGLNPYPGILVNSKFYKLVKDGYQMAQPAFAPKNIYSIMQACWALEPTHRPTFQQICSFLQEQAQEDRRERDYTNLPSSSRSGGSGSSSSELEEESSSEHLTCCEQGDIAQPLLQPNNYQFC

CCc1cc(O)c(F)cc1-c1cc(F)c2c(-c3nc4c([nH]3)CCN(C(=O)CN3CCOCC3)C4)n[nH]c2c1 [Compound 1, 1-(2-(6-(2-ethyl-5-fluoro-4-hydroxyphenyl)-4-fluoro-1H-indazol-3-yl)-1,4,6,7-tetrahydro-5H-imidazo[4,5-c]pyridin-5-yl)-2-morpholinoethan-1-one]
inhibition at 1 µM (CSF1R): 98% | IC50 [1]: ~200 nM | inhibition at 1 µM (CDK9): 9% | inhibition at 1 µM (SRC): 93% | duration of sustained dermal levels [2]: at least 7 days | Ki (JAK2): 0.0251 nM | inhibition at 1 µM (EPHB6): 88% | inhibition at 1 µM (CDK2): 6% | inhibition at 1 µM (GSK3B): 31%
